Assay results from US20250288554A1, “PROPHYLACTIC OR THERAPEUTIC AGENT FOR NON-ALCOHOLIC STEATOHEPATITIS-DERIVED HEPATOCARCINOMA” (SEAKNIT Biological Technology Co., Ltd., priority 2022, published 2025).
Entries after “also recorded” stand apart in the source; their conditions may differ.

Assays:
MC4R deficient mouse = assay: Prophylactic effect of taxifolin on hepatocarcinoma in MC4R deficient mouse loaded with a high fat diet; assay type: in vivo; conditions: high fat diet containing 3% of taxifolin from 20 to 50 weeks old, vs reference group
Description: In Test Example 3, the taxifolin's action on the hepatocarcinoma by using the melanocortin-4 receptor deficient mouse (hereinafter, “MC4R deficient mouse”) loaded with a high fat diet. On the basis of the description in JP 2020-065454 A and JP 2017-006022 A, the MC4R deficient mouse provided by Joel K. Elmquist at the Medical Center in Texas University was used (Cell, 2005; 123(3): 493-505). The genetic background of the MC4R deficient mouse is the C57BL/6J mouse. These mice were kept under the controlled condition of temperature, humidity, and lighting time (12 hours cycle of dark and bright), unless otherwise specifically noted. After weaning (4 weeks after the birth), they were raised with a high fat diet (D12492 (524 kcal/100 g; 60% fat content in terms of energy rate); Research Diets, Inc.) and with freely available drinking water. All the MC4R mice loaded with the high fat diet had the NASH-like symptom by 20 weeks old; it has been known that they develop hepatocarcinoma thereafter (Am. J. Pathol., 2011; 179(5):2454-2463). The MC4R deficient 20 weeks old mice loaded with the high fat diet were divided into two groups; the reference group (n=13) that is continued to be fed with the same high fat diet until 50 weeks old, and the taxifolin-administered group (n=12) that is fed with the high fat diet containing 3% of taxifolin. The mice raised until 50 weeks old were euthanized by deep anesthesia using three mixed anesthetic agents, and then, the liver of each individual was removed. The number of the precancerous symptoms (Foci) in the removed liver, the number of the tumors having the precancerous symptom clustered, and the size of the tumor were measured. The statistical analysis was conducted using Student t-test. In FIG. 3, the number of the precancerous symptoms, the number of the tumors having the precancerous symptom clustered, and the size of the tumor are expressed by the average value of each group±standard error.

HepG2 cell = assay: Taxifolin's suppressing action on fatty acid capturing in HepG2 cells (Oil Red O lipid droplet staining); assay type: cell-based, human; conditions: 24 hours; for capturing amount of palmitic acid by the HepG2 cells: 400 μm palmitic acid, vs Group B without taxifolin
Protocol: In Test example 2, the taxifolin's action on fatty acid capturing was studied by using the HepG2 cell, which is the cell strain derived from human hepatocarcinoma.
The HepG2 cells were inoculated with the density of 0.2×10^6 cells/well on the plate having 24 wells, and they were cultured using the 10% FBS-containing DMEM medium until the HepG2 cells covered 70 to 80% of the surface in the culture vessel. The HepG2 cells cultured in the culture medium were washed with the phosphate buffer (PBS), then cultured for 24 hours in the serum-free medium containing 400 μm of palmitic acid, taxifolin with various concentrations, and 1% BSA, with n=6 in each Group A to E, as described in Table 2.
The glucose concentration contained in the culture medium and in the serum-free medium were made 0%, 0.1% (low glucose), or 0.45% (high glucose).
The HepG2 cells that had been cultured in the serum-free medium for 24 hours were immobilized by 4% paraformaldehyde after washing with PBS. The resulting immobilized HepG2 cells were treated with 60% isopropanol, and then the lipid drops in the cells were stained using Oil Red O (Wako Pure Chemical Industries, Ltd.). Thereafter, it was washed with 60% isopropanol and then with PBS. The resulting washed HepG2 cells were treated with 100% isopropanol to elute the Oil Red O out. The resulting eluted Oil Red O was recovered in the plate with 96 wells, and then the absorbance (550 nm) was measured using the microplate reader (Multiscan SkyHigh; Thermo Fisher Scientific, Inc.).
The statistical analysis was conducted using Student t-test.
In FIG. 2, the capturing amount of the fatty acid is expressed by the average value of each group±standard error.
FIG. 2 indicates the capturing amount of the fatty acid in the HepG2 cells in each Group. The capturing amount in the HepG2 cells in each Group A to E is expressed by the percentage relative to Group A.

CD36 gene expression = assay: Suppression effect of taxifolin on CD36 gene expression in the liver tissue of high-fat diet-induced model mice (real-time PCR); assay type: in vivo, mouse; conditions: C57BL/6J male mice, corrected by GAPDH
Description: In Test Example 1, the taxifolin's action on the CD36 gene expression in the liver tissue was studied using the high-fat diet-induced model mice.
The C57BL/6J male mice (7 weeks old: CLEA Japan, Inc.) were acclimated for one week with a normal solid diet (MF: Oriental Yeast Co., Ltd.) and with freely available drinking water.
The 8 weeks old mice after the acclimation were divided into 4 groups with 5 mice each, namely, the group of those raised with a normal solid diet for 12 weeks until 20 weeks old (hereinafter, “ND Group”), the group raised with a high fat diet (HFD-60 (506 kcal/100 g; 60% fat content in terms of energy rate): Oriental Yeast Co., Ltd.) (hereinafter, “HFD Group”), the group raised with the high fat diet containing 1% by weight of taxifolin (hereinafter, “HFD+1% TX-administered Group”), and the group raised with the high fat diet containing 3% by weight of taxifolin (hereinafter, “HFD+3% TX-administered Group”).
The mice raised until 20 weeks old were anesthetized with ether, and after they were euthanized by cervical dislocation, the liver of each individual was removed. […]
The mRNA expression amount of CD36 was corrected by the expression amount of glyceraldehyde-3-phosphate dehydrogenase (GAPDH), and this was comparatively quantified using the ΔΔCt method. […]

## O=C1c2c(O)cc(O)cc2O[C@H](c2ccc(O)c(O)c2)[C@H]1O [taxifolin]
MC4R deficient mouse
  number of the precancerous symptoms (Foci) in the liver: decreased drastically
  number of the tumors having the precancerous symptom clustered: decreased drastically
  size of the tumor between 1 and 5 mm: decreased significantly
HepG2 cell; HepG2 cells, palmitic acid, lowest concentration tested
  concentration at which taxifolin suppressed the fatty acid capturing in the liver cells: 0.1 nM
HepG2 cell; high glucose (0.45%), taxifolin 0.1 nM to 1 μM
  capturing amount of palmitic acid by the HepG2 cells: same tendency
HepG2 cell; low glucose (0.1%), taxifolin 0.1 nM or more
  capturing amount of palmitic acid by the HepG2 cells: significantly decreased
CD36 gene expression; high fat diet containing 1% by weight of taxifolin for 12 weeks (HFD+1% TX-administered Group) vs HFD Group
  mRNA expression amount of CD36 in the liver tissue: significantly decreased
CD36 gene expression; high fat diet containing 3% by weight of taxifolin for 12 weeks (HFD+3% TX-administered Group) vs HFD Group
  mRNA expression amount of CD36 in the liver tissue: significantly decreased; also recorded: suppressed to the same level as the ND Group
